Non-standard residues stand in square brackets, D forms with d. Residues, ends and D or L forms follow the SMILES beside them. dNMePhg = CN[C@@H](C(=O)O)c1ccccc1; NMePhg = CN[C@H](C(=O)O)c1ccccc1
How the values were obtained:
Prothrombin = Prothrombin (Bos taurus, UniProt P00735)
Description: In vitro concentration of compound required to inhibit 50% of 6 nM thrombin

Plasminogen [1] = target: T1, Plasminogen (Homo sapiens, UniProt P00747); test: In vitro concentration of compound required to inhibit 50% of Plasmin
Coagulation factor X [2] = target: T2, Coagulation factor X (Bos taurus, UniProt P00743); test: In vitro concentration of compound required to inhibit 50% of Factor Xa
Serine protease 1 = target: T3, Serine protease 1 (Bos taurus, UniProt P00760); test: In vitro concentration of compound required to inhibit 50% of trypsin
T3 sequence (P00760 whole entry): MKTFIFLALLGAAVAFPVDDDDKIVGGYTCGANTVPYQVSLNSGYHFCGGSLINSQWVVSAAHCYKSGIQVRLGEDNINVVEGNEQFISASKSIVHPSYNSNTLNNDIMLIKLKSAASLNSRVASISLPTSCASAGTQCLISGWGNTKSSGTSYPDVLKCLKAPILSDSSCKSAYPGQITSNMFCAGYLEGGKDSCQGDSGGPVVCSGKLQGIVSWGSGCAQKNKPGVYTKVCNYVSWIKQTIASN

Plasma kallikrein [3] = target: T4, Plasma kallikrein (Homo sapiens, UniProt P03952); test: In vitro concentration of compound required to inhibit 50% of Kallikrein
[4] = In vitro concentration of compound required to inhibit 50% of nt-PA; set-up: species or system Homo sapiens
Plasma kallikrein [5] = target: T4, Plasma kallikrein; test: In vitro concentration of compound required to inhibit 50% of kallikrein
Plasminogen [6] = target: T1, Plasminogen; test: In vitro concentration of compound required to inhibit 50% of plasmin
Coagulation factor X [7] = target: T2, Coagulation factor X; test: In vitro concentration of compound required to inhibit 50% of factor Xa

T2 sequence (P00743 41-180 limits assumed): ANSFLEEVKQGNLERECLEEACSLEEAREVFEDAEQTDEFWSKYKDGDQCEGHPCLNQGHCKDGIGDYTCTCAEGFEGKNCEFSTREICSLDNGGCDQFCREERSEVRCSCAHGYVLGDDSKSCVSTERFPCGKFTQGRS
T2 sequence (P00743 234-492 limits assumed): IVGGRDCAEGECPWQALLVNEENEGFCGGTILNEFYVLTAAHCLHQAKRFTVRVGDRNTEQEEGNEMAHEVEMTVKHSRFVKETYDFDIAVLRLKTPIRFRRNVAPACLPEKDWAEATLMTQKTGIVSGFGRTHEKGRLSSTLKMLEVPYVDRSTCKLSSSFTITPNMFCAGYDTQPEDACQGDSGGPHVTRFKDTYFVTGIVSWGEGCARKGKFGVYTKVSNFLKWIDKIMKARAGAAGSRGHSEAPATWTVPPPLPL
T4 sequence (P03952 20-390 limits assumed): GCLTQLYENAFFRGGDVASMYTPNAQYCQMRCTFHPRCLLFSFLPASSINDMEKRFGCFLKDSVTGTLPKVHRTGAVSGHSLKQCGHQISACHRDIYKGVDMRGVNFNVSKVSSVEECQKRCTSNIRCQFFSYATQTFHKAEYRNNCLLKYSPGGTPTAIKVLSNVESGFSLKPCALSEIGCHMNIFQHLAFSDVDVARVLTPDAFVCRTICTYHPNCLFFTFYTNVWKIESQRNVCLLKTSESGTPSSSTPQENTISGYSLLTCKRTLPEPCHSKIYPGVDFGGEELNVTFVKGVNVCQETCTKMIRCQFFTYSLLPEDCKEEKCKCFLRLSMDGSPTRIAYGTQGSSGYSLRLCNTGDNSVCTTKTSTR
T4 sequence (P03952 391-638 limits assumed): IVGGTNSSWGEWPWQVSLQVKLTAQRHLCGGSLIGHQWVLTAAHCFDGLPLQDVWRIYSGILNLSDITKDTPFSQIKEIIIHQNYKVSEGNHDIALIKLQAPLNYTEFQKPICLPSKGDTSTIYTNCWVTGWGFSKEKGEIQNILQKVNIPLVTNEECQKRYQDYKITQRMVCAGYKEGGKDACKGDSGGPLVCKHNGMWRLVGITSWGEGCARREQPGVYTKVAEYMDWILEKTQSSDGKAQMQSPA
T1 sequence (P00747 97-580 limits assumed): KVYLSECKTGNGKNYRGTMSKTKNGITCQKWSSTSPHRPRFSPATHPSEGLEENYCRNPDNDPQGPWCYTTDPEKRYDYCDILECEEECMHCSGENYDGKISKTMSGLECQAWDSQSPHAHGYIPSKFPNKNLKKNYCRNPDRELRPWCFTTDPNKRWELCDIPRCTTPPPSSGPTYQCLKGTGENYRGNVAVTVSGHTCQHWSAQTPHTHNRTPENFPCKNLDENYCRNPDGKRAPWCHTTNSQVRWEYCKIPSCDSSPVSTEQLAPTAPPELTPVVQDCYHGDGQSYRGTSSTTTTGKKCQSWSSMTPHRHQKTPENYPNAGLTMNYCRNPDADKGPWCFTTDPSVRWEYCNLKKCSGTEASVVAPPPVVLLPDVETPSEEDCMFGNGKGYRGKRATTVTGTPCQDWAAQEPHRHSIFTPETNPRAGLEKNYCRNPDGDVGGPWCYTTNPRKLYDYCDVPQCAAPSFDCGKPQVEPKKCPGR
T1 sequence (P00747 581-810 limits assumed): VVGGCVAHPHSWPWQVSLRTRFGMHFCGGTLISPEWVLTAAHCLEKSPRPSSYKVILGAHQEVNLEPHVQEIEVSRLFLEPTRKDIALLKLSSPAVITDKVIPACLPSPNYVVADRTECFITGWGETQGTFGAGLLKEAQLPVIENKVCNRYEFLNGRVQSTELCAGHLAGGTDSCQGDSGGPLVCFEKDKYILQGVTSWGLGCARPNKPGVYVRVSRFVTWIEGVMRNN

IC50 (Prothrombin) [µM]	IC50 (Serine protease 1) [µM]	IC50 [4] [µM]	Compound	also measured
0.02			CN[C@H](C(=O)N1CCC[C@H]1C(=O)N[C@@H](CCCNC(=N)N)C(=O)O)c1ccccc1 (H-[NMePhg]-Pro-Arg-OH)	
> 10			COC(=O)c1oc2c(sc3ccccc32)c1O	
	29	160	COC(=O)c1oc2c(sc3ccccc32)c1OC(=O)C(C)C	IC50 (Plasminogen [1]): 240 µM; IC50 (Coagulation factor X [2]): 0.1 µM; IC50 (Plasma kallikrein [3]): 7.2 µM
	0.02	43	CN[C@@H](C(=O)N1CCC[C@H]1C(=O)N[C@H](C=O)CCCNC(=N)N)c1ccccc1 (H-[dNMePhg]-Pro-Arg-aldehyde)	IC50 (Plasma kallikrein [5]): 12 µM; IC50 (Plasminogen [6]): 0.5 µM; IC50 (Coagulation factor X [7]): 2.2 µM
> 10			COC(=O)c1oc2c(sc3ccccc32)c1OC	

Compound	IC50 (Prothrombin) [µM]	IC50 (Serine protease 1) [µM]	IC50 [4] [µM]	also measured
COC(=O)c1oc2c(sc3ccccc32)c1OC(=O)N(C)C	> 10			

Source: ChEMBL document CHEMBL1126451, “Characterization of LY806303 as a potent and selective inhibitor of thrombin” (Bioorg Med Chem Lett, 1992)
